Source: ChEMBL document CHEMBL1201862, “PubChem BioAssay data set” (2004)
Calls of active or inactive are those of the source.

Tests used:
cells [1] = test: cells
Major prion protein = Major prion protein (Homo sapiens, UniProt P04156); format: functional, cell-based
Estrogen receptor beta = Estrogen receptor beta (Homo sapiens, UniProt Q92731);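 also: recombinant ER-beta bound to coactivator SRC1 peptide in presence of estradiol agonist; inhibitors block coactivator peptide binding and lower the FRET signal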
[2] = molecular target: T1, Fructose-bisphosphate aldolase (Mycobacterium tuberculosis, UniProt P9WQA3); test: Fluorescence-based biochemical high throughput dose response assay for inhibitors of the fructose-bisphosphate aldolase (FBA) of M. tuberculosis.; format: functional
T1 sequence (P9WQA3 whole entry): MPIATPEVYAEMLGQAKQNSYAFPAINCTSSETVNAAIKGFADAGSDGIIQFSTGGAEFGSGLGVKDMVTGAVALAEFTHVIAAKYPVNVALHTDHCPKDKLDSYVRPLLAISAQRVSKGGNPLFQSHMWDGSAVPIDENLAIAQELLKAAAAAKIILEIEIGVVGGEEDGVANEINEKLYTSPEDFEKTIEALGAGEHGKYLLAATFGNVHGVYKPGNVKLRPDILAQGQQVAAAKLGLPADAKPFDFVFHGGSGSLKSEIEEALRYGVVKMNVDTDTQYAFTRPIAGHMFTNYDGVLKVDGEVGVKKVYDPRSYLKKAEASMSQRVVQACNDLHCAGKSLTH

[3] = cytotoxicity in HPDE-C7 cells, cell-based, fluorescence, HTS (AID 430); format: functional; conditions: Homo sapiens
[4] = inhibitors of intracellular T. cruzi replication, confirmation, NIH3T3 host cells, beta-gal luminescence (AID 2044); format: functional, cell-based;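 also: intracellular parasites grown in NIH/3T3 mouse fibroblasts as host cells; luminescent beta-galactosidase reporter signal from transgenic T. cruzi replicating inside host cells; inhibitors lower the luminescence signal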
[5] = cytotoxicity toward NIH3T3 fibroblasts, dose response, counter-screen, cell-based, ATP luminescence, mouse fibroblasts (AID 2010); format: functional;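 also: cells exposed to compound for about 90 hours before reading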
[6] = cytotoxicity in KRAS-transformed pancreatic duct cells, primary screen, cell-based, fluorescence, HTS (AID 431); format: functional; conditions: Homo sapiens;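 also: cell line used: HPDE-C7K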
[7] = inhibitors of SNCA 5'UTR-driven reporter translation, confirmation, H4 neuroglioma cells, luminescence (AID 1988); format: functional, cell-based
[8] = Luminescence Cell-Based Dose Response HTS to Identify Inhibitors of 5'UTR Stem-Loop Driven Prion Protein mRNA Translation in H4 Neuroglioblastoma Cells. [Related pubchem assays: 1827 (Project Summary), 1813 (Primary HTS)]; format: functional
[9] = inhibitors of firefly luciferase expression or activity, dose response, H4 neuroglioma cells, luminescence (AID 1990); format: functional, cell-based
cells [10] = format: functional, cell-based
[11] = molecular target: T2, Nuclear receptor subfamily 0 group B member 1 (Homo sapiens, UniProt P51843); format: functional, cell-based;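 also: HEK293T cells transfected with SF-1 and DAX-1 plus StAR promoter luciferase reporter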
T2 sequence (P51843 whole entry): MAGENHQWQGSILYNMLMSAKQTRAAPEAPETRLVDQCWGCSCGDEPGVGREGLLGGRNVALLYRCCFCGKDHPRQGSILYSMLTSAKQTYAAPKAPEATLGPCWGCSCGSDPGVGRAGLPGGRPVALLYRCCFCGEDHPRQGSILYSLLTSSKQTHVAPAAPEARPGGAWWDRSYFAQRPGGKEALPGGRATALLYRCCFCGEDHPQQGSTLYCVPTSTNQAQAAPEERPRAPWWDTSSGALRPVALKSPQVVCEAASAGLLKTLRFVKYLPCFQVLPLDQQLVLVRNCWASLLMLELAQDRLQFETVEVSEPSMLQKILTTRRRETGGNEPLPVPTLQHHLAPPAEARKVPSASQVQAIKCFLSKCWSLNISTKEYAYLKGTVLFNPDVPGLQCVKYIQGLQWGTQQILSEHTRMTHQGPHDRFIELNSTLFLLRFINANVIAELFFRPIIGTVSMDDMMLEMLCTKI

Beta-galactosidase = Beta-galactosidase (Escherichia coli, UniProt Q8VNN2); test: Dose response counterscreen for EBI2 assay utilizing the enzyme, b-galactosidase.; format: functional
[12] = molecular target: Protein-tyrosine kinase 2-beta (Homo sapiens, UniProt Q14289);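 also: potency of inhibitors of PYK2 kinase phosphorylation of poly-GT substrate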
[13] = HeLa 4N DNA content increase, dose response, cell-based, IC50 (AID 1117351); format: functional
[14] = ZM109 Env clade C HIV-1 fusion inhibitors, dose response, HeLa effector, CEM target cells, luciferase, cherry-pick (AID 652058); format: functional, cell-based
[15] = off-target signal loss in HeLa-CEM21 co-culture – HeLa F-luc CTL cells, cherry-picked, counter-screen for HIV-1 Env fusion inhibitor project, dose response (AID 652040); format: functional, cell-based;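 also: potency for signal decrease marking cytotoxic or nonspecific inhibition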
[16] = inhibitors of HIV Env-driven cell fusion, dose response, cherry-pick (AID 652057); format: functional, cell-based
[17] = inhibitors of clade B AD8 Env fusion, dose response, cell-based, cherry-pick (AID 652062); format: functional;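 also: luciferase signal from cell-cell fusion driven by HIV-1 clade B AD8 Env; potency is for inhibitors of fusion seen as a drop in luminescence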
[18] = HepG2 cell cytotoxicity, dose response, cytotoxicity control, ATP luminescence, cherry-pick, activator set 2 (AID 1053143); format: functional, cell-based

In the case of COc1cc(C(=O)Nc2scc(-c3ccc(C)cc3)c2C(=O)O)cc(OC)c1OC, the IC50 (cells [1]) is reported as > 138 µM (inactive) and the IC50 (Major prion protein) is reported as 4.4 µM (active).
For O=S(=O)(O)c1nc2ccccc2n1Cc1ccccc1, the IC50 (Estrogen receptor beta) was > 50 µM (not active).
In the case of N#Cc1nc(-c2cccs2)oc1N1CCN(Cc2ccccc2)CC1, the IC50 [2] is reported as 849 nM (active).
In the case of c1ccc(N2CCN(c3nc(NCc4ccco4)c4ccccc4n3)CC2)cc1, the EC50 [3] is reported as 11 µM (active), the EC50 [4] is reported as 2.3 µM (active) and the EC50 [5] is reported as > 60 µM (not active). For the same compound, the EC50 [6] was 10.8 µM (active).
With Cc1nn(C)c(C)c1CN(C)C(=O)c1cnn2c1NC(c1ccccc1)CC2C(F)(F)F (configuration not stated) the EC50 [7] was 20 µM (active), the IC50 (Estrogen receptor beta) was > 50 µM (not active) and the EC50 [8] was 17.9 µM (active). For the same compound, the EC50 [9] was > 120 µM (not active).
With O=C(NCC1(N2CCCCC2)CCCCC1)c1cccc(S(=O)(=O)Nc2ccc(F)cc2)c1 the IC50 (cells [10]) was > 67.5 µM (inactive) and the IC50 [11] was > 67.5 µM (inactive).
With Cc1ccsc1C1Nc2ccc3ncccc3c2C2=C1C(=O)CC(C)(C)C2 (configuration not stated) the IC50 (Beta-galactosidase) was > 80 µM (inactive).
In the case of COc1ccc(-c2cc3ccccc3oc2=O)cc1NC(=O)c1ccc(Br)o1, the IC50 [12] is reported as 1.57 µM (active).
For CC[C@@]1(O)C(=O)OCc2c1cc1n(c2=O)Cc2c-1nc1ccccc1c2/C=N/OC(C)(C)C, the IC50 [13] was > 10 µM (inactive).
In the case of COc1ccc([C@@H]2[C@@H]3C(=O)N(C(C)(C)C)C(=O)[C@@H]3[C@]3(CC(C)C)C(=O)N(c4ccccc4)C(=O)N23)cc1, the AC50 [14] is reported as 1.13 µM (active), the AC50 [15] is reported as 732 nM (active) and the AC50 [16] is reported as 737 nM (active). For the same compound, the AC50 [17] was 1.88 µM (active).
In the case of COc1ccc(C(=O)COc2ccc(C)cc2NC(C)=O)cc1, the AC50 [18] is reported as > 52 µM (inactive).
For O=C1CC2(CCN(C(=O)COc3ccc(Cl)cc3)CC2)Oc2ccccc21, the IC50 (Beta-galactosidase) was > 80 µM (inactive).
With CC(=O)N1c2ccc(S(=O)(=O)N3CCCC(C(=O)Nc4cc(C)cc(C)c4)C3)cc2CC1C (configuration not stated) the IC50 (cells [1]) was > 138 µM (inactive) and the IC50 (Major prion protein) was 10.4 µM (inactive).
With CN(C)CCN(C(=O)c1ccc2c(c1)CCCC2)c1nc2cc3c(cc2s1)OCCO3 the IC50 (cells [10]) was > 67.5 µM (inactive) and the IC50 [11] was > 67.5 µM (inactive).
